Laboratory results reported in ChEMBL document CHEMBL3882725, “Indazole derivatives as JNK inhibitors and compositions and methods related thereto” (2002).

Target: Mitogen-activated protein kinase 9 (Homo sapiens, UniProt P45984)
Experiment: Inhibition of His6-tagged JNK2 (unknown origin) assessed as reduction in c-Jun phosphorylation using GST-c-Jun (1 to 79 residues) and [gamma32P]ATP incubated for 1 hr by scintillation counting assay

Sequence of Mitogen-activated protein kinase 9 (P45984 whole entry, the tested form may be a part): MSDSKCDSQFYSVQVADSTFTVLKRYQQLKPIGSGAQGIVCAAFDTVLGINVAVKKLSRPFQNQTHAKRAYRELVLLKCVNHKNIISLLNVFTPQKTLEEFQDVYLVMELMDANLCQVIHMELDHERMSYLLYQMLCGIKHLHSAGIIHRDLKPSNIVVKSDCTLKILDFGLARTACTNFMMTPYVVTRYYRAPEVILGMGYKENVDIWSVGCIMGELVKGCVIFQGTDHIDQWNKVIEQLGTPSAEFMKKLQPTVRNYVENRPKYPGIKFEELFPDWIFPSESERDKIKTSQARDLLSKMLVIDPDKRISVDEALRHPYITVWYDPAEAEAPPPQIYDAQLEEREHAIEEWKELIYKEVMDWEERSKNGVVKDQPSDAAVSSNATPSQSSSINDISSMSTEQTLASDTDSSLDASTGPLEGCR

Compound	IC50 [µM]
CN(C)C(=O)c1ccc2[nH]nc(-c3ccc(F)cc3)c2c1	≤ 10
COc1ccc(-c2n[nH]c3ccc(NC(=O)c4ccc(C(=O)O)cc4)cc23)cc1	1 to 10
Oc1ccc2[nH]nc(-c3ccccc3)c2c1	1 to 10
Fc1ccc(-c2n[nH]c3ccc(-c4cc[nH]n4)cc23)cc1	1 to 10
Nc1ccc2[nH]nc(-c3ccccc3)c2c1	≤ 10
Fc1ccc(-c2n[nH]c3ccc(-c4nc(-c5ccncc5)n[nH]4)cc23)cc1	1 to 10
NC(=O)CCCNC(=O)c1ccc2[nH]nc(-c3ccc(F)cc3)c2c1	1 to 10
COc1ccccc1C(=O)Nc1ccc2[nH]nc(-c3ccc(F)cc3)c2c1	≤ 10
Fc1ccc(-c2n[nH]c3ccc(NCc4cccnc4)cc23)cc1	≤ 10
O=C(Nc1ccc2[nH]nc(-c3ccc(F)cc3)c2c1)c1ccccc1O	1 to 10
Cc1ccccc1C(=O)Nc1ccc2[nH]nc(-c3ccc(F)cc3)c2c1	1 to 10
Fc1ccc(-c2n[nH]c3ccc(-c4nc5ccccc5[nH]4)cc23)cc1	≤ 10
CNC(=O)c1ccc2[nH]nc(-c3ccc(F)cc3)c2c1	1 to 10
O=C(c1ccc2[nH]nc(-c3ccc(F)cc3)c2c1)N1CCNCC1	≤ 10
COc1ccc(-c2n[nH]c3ccc(N)cc23)cc1	≤ 10
CCOC(=O)c1ccc2[nH]nc(-c3ccc(F)cc3)c2c1	1 to 10
O=C(O)Cc1ccc(NC(=O)c2ccc3[nH]nc(-c4ccc(F)cc4)c3c2)cc1	1 to 10
CN(C)CCNC(=O)c1ccc2[nH]nc(-c3ccc(F)cc3)c2c1	≤ 10
Nc1ccc2[nH]nc(-c3cccc(C(F)(F)F)c3)c2c1	≤ 10
CC(C)(C)OC(=O)NNC(=O)c1ccc2[nH]nc(-c3ccc(F)cc3)c2c1	1 to 10
O=C(Nc1cccnc1)c1ccc2[nH]nc(-c3ccc(F)cc3)c2c1	1 to 10
O=C(NCc1ccncc1)c1ccc2[nH]nc(-c3ccc(F)cc3)c2c1	1 to 10
NC(=O)c1ccc(NC(=O)c2ccc3[nH]nc(-c4ccc(F)cc4)c3c2)cc1	1 to 10

Compound	IC50 [µM]
COC(=O)c1ccc(C(=O)Nc2ccc3[nH]nc(-c4ccc(F)cc4)c3c2)cc1	≤ 10
CC(C)c1n[nH]c(-c2ccc3[nH]nc(-c4ccc(F)cc4)c3c2)n1	0.5 to 10
O=S(=O)(Nc1ccc2[nH]nc(-c3ccc(F)cc3)c2c1)c1ccccc1	≤ 10
Fc1ccc(-c2n[nH]c3ccc(-c4nnc(Cc5ccccc5)[nH]4)cc23)cc1	1 to 10
O=C(c1ccc2[nH]nc(-c3ccc(F)cc3)c2c1)N1CCCC1	≤ 10
O=C(Nc1ccccc1)c1ccc2[nH]nc(-c3ccc(F)cc3)c2c1	≤ 10
FC(F)(F)c1ccc2[nH]nc(-c3ccccc3)c2c1	≤ 10
Nc1ccc(-c2nnc(-c3ccc4[nH]nc(-c5ccc(F)cc5)c4c3)[nH]2)cc1	1 to 10
O=C(NCc1ccccn1)c1ccc2[nH]nc(-c3ccc(F)cc3)c2c1	1 to 10
O=C(Nc1ccncc1)c1ccc2[nH]nc(-c3ccc(F)cc3)c2c1	1 to 10
O=C(Nc1ccc2[nH]nc(-c3ccc(F)cc3)c2c1)c1cccs1	1 to 10
O=C(O)CCCNC(=O)c1ccc2[nH]nc(-c3ccc(F)cc3)c2c1	1 to 10
O=[N+]([O-])c1cccc(/C=C/c2ccc3[nH]nc(-c4ccc(F)cc4)c3c2)c1	≤ 10
O=C(NO)c1ccc2[nH]nc(-c3ccc(F)cc3)c2c1	1 to 10
O=C(O)c1ccc(C(=O)Nc2ccc3[nH]nc(-c4ccccc4)c3c2)cc1	1 to 10
O=C(NCc1cccnc1)c1ccc2[nH]nc(-c3ccc(F)cc3)c2c1	1 to 10
O=C(O)c1cccc(C(=O)Nc2ccc3[nH]nc(-c4ccc(F)cc4)c3c2)c1	1 to 10
O=C(Nc1ccc2[nH]nc(-c3ccccc3)c2c1)c1ccccc1O	1 to 10
O=C(NCCCN1CCOCC1)c1ccc2[nH]nc(-c3ccc(F)cc3)c2c1	≤ 10
O=C(Nc1ccc(F)cc1)Nc1ccc2[nH]nc(-c3ccc(F)cc3)c2c1	≤ 10
Cc1n[nH]c(-c2ccc3[nH]nc(-c4ccc(F)cc4)c3c2)n1	1 to 10
O=C(Nc1ccc2[nH]nc(-c3ccccc3)c2c1)c1ccccn1	1 to 10
CC(C)(C)OC(=O)CCNC(=O)c1ccc2[nH]nc(-c3ccc(F)cc3)c2c1	≤ 10

Compound	IC50 [µM]
CC(C)(C)OC(=O)CNC(=O)c1ccc2[nH]nc(-c3ccc(F)cc3)c2c1	1 to 10
O=C(Nc1ccc2[nH]nc(-c3ccc(F)cc3)c2c1)C1CC1	≤ 10
O=C(Nc1nnn[nH]1)c1ccc2[nH]nc(-c3ccc(F)cc3)c2c1	1 to 10
O=C(Nc1ccc2[nH]nc(-c3ccc(F)cc3)c2c1)c1ccncc1	1 to 10
O=C(Nc1cccc(O)c1)c1ccc2[nH]nc(-c3ccc(F)cc3)c2c1	1 to 10
CNC(=O)c1ccc(C(=O)Nc2ccc3[nH]nc(-c4ccc(F)cc4)c3c2)cc1	1 to 10
O=C(Nc1ccc2[nH]nc(-c3ccc(F)cc3)c2c1)c1ccccc1	1 to 10
Fc1ccc(-c2n[nH]c3ccc(-c4nn[nH]n4)cc23)cc1	0.5 to 10
Nc1ccc(C(=O)Nc2ccc3[nH]nc(-c4ccccc4)c3c2)cc1	1 to 10
O=[N+]([O-])c1ccc2[nH]nc(-c3cccc4ccccc34)c2c1	≤ 10
CCOc1cccc(-c2n[nH]c3ccc([N+](=O)[O-])cc23)c1	≤ 10
O=C(Nc1ccc2[nH]nc(-c3ccc(F)cc3)c2c1)c1ccco1	1 to 10
Fc1ccc(-c2n[nH]c3ccc(/C=C/c4ccncc4)cc23)cc1	≤ 10
O=C(O)c1ccc(CNC(=O)c2ccc3[nH]nc(-c4ccc(F)cc4)c3c2)cc1	1 to 10
Fc1ccc(-c2n[nH]c3ccc(NCc4ccncc4)cc23)cc1	1 to 10
O=C(O)CCCCNC(=O)c1ccc2[nH]nc(-c3ccc(F)cc3)c2c1	1 to 10
NC(=O)c1ccc2[nH]nc(-c3ccc(F)cc3)c2c1	1 to 10
CCOC(=O)Cc1n[nH]c(-c2ccc3[nH]nc(-c4ccc(F)cc4)c3c2)n1	1 to 10
CC(=O)Nc1ccc2[nH]nc(-c3ccccc3)c2c1	1 to 10
O=C(Nc1ccc2[nH]nc(-c3ccc(F)cc3)c2c1)N1CCOCC1	≤ 10
O=C(NOCc1ccccc1)c1ccc2[nH]nc(-c3ccc(F)cc3)c2c1	≤ 10
NC(=O)CCNC(=O)c1ccc2[nH]nc(-c3ccc(F)cc3)c2c1	1 to 10
O=C(O)C1CCN(C(=O)c2ccc3[nH]nc(-c4ccc(F)cc4)c3c2)CC1	≤ 10

Compound	IC50 [µM]
c1ccc(COc2ccc3[nH]nc(-c4ccccc4)c3c2)cc1	≤ 10
CC(O)CNC(=O)c1ccc2[nH]nc(-c3ccc(F)cc3)c2c1 (stereo unspecified)	1 to 10
NNC(=O)c1ccc2[nH]nc(-c3ccc(F)cc3)c2c1	1 to 10
O=C(O)c1ccc(NC(=O)c2ccc3[nH]nc(-c4ccc(F)cc4)c3c2)cc1	1 to 10
CCNc1ccc2[nH]nc(-c3ccc(F)cc3)c2c1	≤ 10
CCCc1n[nH]c(-c2ccc3[nH]nc(-c4ccc(F)cc4)c3c2)n1	1 to 10
COc1ccc(-c2n[nH]c3ccc([N+](=O)[O-])cc23)cc1OC	≤ 10
O=[N+]([O-])c1ccc2[nH]nc(-c3cccc(C(F)(F)F)c3)c2c1	≤ 10
O=C(Nc1cccc([N+](=O)[O-])c1)c1ccc2[nH]nc(-c3ccc(F)cc3)c2c1	1 to 10
O=C(Nc1ccccn1)c1ccc2[nH]nc(-c3ccc(F)cc3)c2c1	≤ 10
Fc1ccc(-c2n[nH]c3ccc(/C=C/c4ccccn4)cc23)cc1	≤ 10
Fc1ccc(-c2n[nH]c3ccc(-c4nc(-c5ccccc5)n[nH]4)cc23)cc1	1 to 10
Cn1cncc1CCNC(=O)c1ccc2[nH]nc(-c3ccc(F)cc3)c2c1	1 to 10
CCOC(=O)C1CCN(C(=O)c2ccc3[nH]nc(-c4ccc(F)cc4)c3c2)CC1	≤ 10
COC(=O)c1ccc(NC(=O)c2ccc3[nH]nc(-c4ccc(F)cc4)c3c2)cc1	≤ 10
O=C(NCC1CCCC[C@H]1O)c1ccc2[nH]nc(-c3ccc(F)cc3)c2c1 (stereo partly specified)	1 to 10
O=C(O)c1ccc(C(=O)Nc2ccc3[nH]nc(-c4ccc(F)cc4)c3c2)cc1	1 to 10
O=C(O)CCNC(=O)c1ccc2[nH]nc(-c3ccc(F)cc3)c2c1	1 to 10
O=C(Nc1ccc2[nH]nc(-c3ccc(F)cc3)c2c1)c1ccccn1	1 to 10
Cc1nnc(-c2ccc3[nH]nc(-c4ccc(F)cc4)c3c2)o1	1 to 10
O=[N+]([O-])c1ccc2[nH]nc(-c3ccoc3)c2c1	≤ 10
COC(=O)c1cccc(C(=O)Nc2ccc3[nH]nc(-c4ccc(F)cc4)c3c2)c1	≤ 10
Nc1ccc2[nH]nc(-c3ccc(F)cc3)c2c1	≤ 10

Compound	IC50 [µM]
Cc1ccc2[nH]nc(-c3ccccc3)c2c1	≤ 10
O=C(O)c1ccc(C(=O)Nc2ccc3[nH]nc(-c4ccncc4)c3c2)cc1	1 to 10
O=C(O)/C=C/c1ccc2[nH]nc(-c3ccc(F)cc3)c2c1	1 to 10
O=C(Nc1ccc2[nH]nc(-c3ccccc3)c2c1)c1ccccc1	1 to 10
CCOC(=O)CCc1ccc2[nH]nc(-c3ccc(F)cc3)c2c1	≤ 10
O=C(O)CNC(=O)c1ccc2[nH]nc(-c3ccc(F)cc3)c2c1	1 to 10
O=[N+]([O-])c1ccc2[nH]nc(-c3ccc4ccccc4c3)c2c1	≤ 10
O=C(Nc1ccc2[nH]nc(-c3ccc(F)cc3)c2c1)c1cccnc1	1 to 10
Fc1ccc(-c2n[nH]c3ccc(-c4ncc[nH]4)cc23)cc1	1 to 10
COc1ccc(-c2n[nH]c3ccc([N+](=O)[O-])cc23)cc1	≤ 10
NCCNC(=O)c1ccc2[nH]nc(-c3ccc(F)cc3)c2c1	≤ 10
Nc1cccc(NC(=O)c2ccc3[nH]nc(-c4ccc(F)cc4)c3c2)c1	1 to 10
Fc1ccc(-c2n[nH]c3ccc(-c4nnc[nH]4)cc23)cc1	0.5 to 10
Fc1ccc(-c2n[nH]c3ccc(-c4nc(-c5ccco5)n[nH]4)cc23)cc1	1 to 10
Nc1cccc(C(=O)Nc2ccc3[nH]nc(-c4ccccc4)c3c2)c1	1 to 10
NC(=O)c1ccc(C(=O)Nc2ccc3[nH]nc(-c4ccc(F)cc4)c3c2)cc1	1 to 10
O=C(O)c1ccc2[nH]nc(-c3ccc(F)cc3)c2c1	1 to 10
NCCCNC(=O)c1ccc2[nH]nc(-c3ccc(F)cc3)c2c1	1 to 10
O=[N+]([O-])c1ccc2[nH]nc(-c3ccccc3)c2c1	≤ 10
